# Measurements as given in patent US5380715A, “Ap4 A as a hypotensive agent” (Fujirebio Inc., priority 1992, dated 1995).
# Like-named read-outs stand apart in the source and are kept apart here.
# Experiments:
# [1] = system: rabbit platelet aggregation; test: Inhibitory effect on rabbit platelet aggregation; format: cell-based; conditions: rabbit PRP
# Procedure: Fresh blood samples were collected from male Japanese white rabbits weighing 2-3 kg. Blood was anticoagulated with citric acid (1 ml 3.8% citric acid solution +9 ml blood). These samples were centrifuged at room temperature for 20 min at 200×g to obtained platelet-rich plasma (PRP). Furthermore, the supernatant liquid was centrifuged for 10 min at 1500×g to obtained platelet-poor plasma (PPP). Aggregation of platelests was measured photometrically in a Nihon Kohden hema tracer equipped with a mechanical stirring device and with a chart record. At this time, the chart recorder was calibrated as follows: the light transmission obtained with PPP was set as 100% transmission and the optical density of PRP was taken as 0% transmission. Maximal aggregation, i.e. the maximal change in optical density of the primary wave calculated in percent light transmission. From the study, it was determined that ADP, Ap3A, PAF(platelet activating factor) and collagen induced maximal aggregations at a concentration of 1×10^-5 M, 1×10^-4 M, 1.9×10^-7 M and 5 μg/kg, respectively. In the following studies, these aggregating agents were used at maximal dose. The effect of Ap4A on platelet aggregation by ADP and Ap3A were tested. In this time, Ap4A was pretreated for 1 or 10 min before the addition of aggregating agents. Also, after the platelet aggregation was induced by addition of ADP, PAF or collagen to PRP, the platelet aggregate dispersing effect of Ap4A was tested.
# [2] = words, cited from earlier work
# [3] = system: dogs; test: Gradual hypotension during anesthesia in dogs (hemodynamics, blood gas); format: in vivo, mongrel dogs; conditions: dog; for Arterial Carbonate Tension PaCO2 / Arterial Oxygen Tension PaO2 / Arterial pH (pH-a) / Body Temperature BT / Cardiac Output C.O. / Central Venous Pressure CVP / Dose / Heart Rate H.R. / Hematocrit Value Hct / Mean Blood Pressure B.P. (mean) / Mean Blood Pressure B.P. (Δ%) / Mixed Venous Carbonate Tension PvCO2 / Mixed Venous Oxygen Tension PvO2 / Mixed Venous pH (pH-v) / Pulmonary Artery Pressure PAM / Pulmonary Capillary Wedge Pressure PCWP: enflurane
# Procedure: Dogs were anesthetized with enflurane. […] The mean blood pressure (B.P.), heart rate (H.R.), cardiac output (C.O.), arterial oxygen tension (PaO2), mixed venos oxygen tension (PvO2), arterial carbonate tension (PaCO2), mixed venous carbonate tension (PvCO2), arterial pH (pH-a), mixed venous pH (pH-v), and base excess thereof were measured.
# Mongrel dogs weighing 9 to 17 kg were anesthetized with intravenous thiopental 20 mg/kg by bolus injection, followed by 1% enflurane in 40% O2 /N2 after endotracheal intubation. […] Bilateral femoral arteries were catheterized, one for the determination of blood pressure and the other for blood sampling.
# Access to the bilateral femoral veins was obtained for the administration of Ap4A, PG E1 or nitroglycerin and for the insertion of a ballon-tipped thermodilution catheter. The electrocardiogram was continuously monitored. The control values were obtained before the administration of each of the above-mentioned three agents. Each agent was administered using a syringe pump at titrated doses to produce gradual 20%, 40%, 50%, 60%, and 80% decreases in the mean arterial pressure (MAP) from the control value.
# After the target blood pressure and stable hemodynamic conditions were reached, the following parameters were measured: heart rate (HR), mean pulmonary artery pressure (PAM), pulmonary capillary wedge pressure (PCWP), and central venous pressure (CVP). Cardiac output (CO) was determined by the thermodilution method. Gas analyses of arterial and mixed venous bloods were performed using a blood gas analyzer.
# [4] = system: rats; test: Gradual hypotension during anesthesia in rats; format: in vivo, male SD rats; conditions: rat, enflurane
# Procedure: Male SD rats (Charles River Japan Inc.) were anesthetized with intravenous thiopental 50 mg/kg as a bolus, followed by 1% enflurane in air.
# A femoral artery was catheterized to monitor the blood pressure and heart rate, while a femoral vein was catheterized for the administration of each of the test drugs.
# (§1) The control values were obtained before the administration of each test drug. Each test drug was then administered using a syringe in a dose-dependent manner for 15 minutes. The percentage (%) of the decrease of blood pressure was determined when stabilized. Changes in heart rate (H.R.) at the administration of each test drug were measured. Furthermore,the recovery of mean blood pressure after intravenous infusion of each test drug was also determined from the decrease in heart rate and the blood pressure at a maximum dose of each test drug.
# [5] = system: rats; test: Recovery of blood pressure after gradual hypotension in rats; format: in vivo, male SD rats; conditions: rat
# Procedure: FIG. 1 is a graph showing the recovery of the blood pressure of rats anesthetized with enflurane with time, when each of Ap4A ( ), PG E1 ( ) and nitroglycerin ( ) was used as a test drug to attain gradual hypotension, with the blood pressure before the administration of each test drug being set 100% for reference.
# The recovery of blood pressure after gradual hypotension by use of each of Ap4A, PG E1 and nitroglycerin was also tested.
# as §1
# In a test similar to the above, each of Ap4A, PG E1, and nitroglycerin was administered to rats, so that about 65% fall in blood pressure, about 55% fall in blood pressure, and about 35% fall in blood pressure were stepwise attained. With respect to each agent, the recovery of blood pressure was tested.
compound,measurement,setting,value
"Nc1ncnc2c1ncn2[C@@H]1O[C@H](COP(=O)(O)OP(=O)(O)O)[C@@H](O)[C@H]1O [ADP, adenosine diphosphate, reference compound]",concentration inducing maximal platelet aggregation,[1],10 µM
"Nc1ncnc2c1ncn2[C@@H]1O[C@H](COP(=O)(O)OP(=O)(O)OP(=O)(O)OC[C@H]2O[C@@H](n3cnc4c(N)ncnc43)[C@H](O)[C@@H]2O)[C@@H](O)[C@H]1O [Ap3A, diadenosine 5', 5'""-p^1,p^4 -triphosphate, reference compound]",concentration inducing maximal platelet aggregation,[1],100 µM
FC(F)(F)C(Cl)Br (stereo not drawn) [Halothane],shortcomings / adverse effects,[2],hepatotoxicity and sthenia of brain pressure
"CCCCCCCCCCCCCCCCOCC(COP(=O)([O-])OCC[N+](C)(C)C)OC(C)=O (stereo not drawn) [PAF, reference compound]",concentration inducing maximal platelet aggregation,[1],0.19 µM
"CCCCC[C@H](O)/C=C/[C@H]1[C@H](O)CC(=O)[C@@H]1CCCCCCC(=O)O [PG E1, prostaglandin E1, reference compound]",Arterial Carbonate Tension PaCO2,[3]; at -20% blood pressure,37.3 ± 1.4 mmHg
same,Arterial Oxygen Tension PaO2,[3]; at -20% blood pressure,251.6 ± 8.3 mmHg
same,Arterial pH (pH-a),[3]; at -20% blood pressure,7.323 ± 0.015
same,Body Temperature BT,[3]; at -20% blood pressure,37.4 ± 0.6 °C
same,Cardiac Output C.O.,[3]; at -20% blood pressure,1.47 ± 0.18 L/min
same,Central Venous Pressure CVP,[3]; at -20% blood pressure,3.27 ± 0.59 mmHg
same,Dose,[3]; at -20% blood pressure,1.66 ± 0.48 µg/kg/min
same,Heart Rate H.R.,[3]; at -20% blood pressure,167.8 ± 8.6 beats/min
same,Hematocrit Value Hct,[3]; at -20% blood pressure,41.5 ± 2.9%
same,Mean Blood Pressure B.P. (mean),[3]; at -20% blood pressure,107.2 ± 5.3
same,Mean Blood Pressure B.P. (Δ%),[3]; at -20% blood pressure,-20.3 ± 0.4%
same,Mixed Venous Carbonate Tension PvCO2,[3]; at -20% blood pressure,41.3 ± 1.3 mmHg
same,Mixed Venous Oxygen Tension PvO2,[3]; at -20% blood pressure,51.0 ± 1.0 mmHg
same,Mixed Venous pH (pH-v),[3]; at -20% blood pressure,7.303 ± 0.009
same,Pulmonary Artery Pressure PAM,[3]; at -20% blood pressure,16.0 ± 3.8 mmHg
same,Pulmonary Capillary Wedge Pressure PCWP,[3]; at -20% blood pressure,9.0 ± 3.0 mmHg
same,Arterial Carbonate Tension PaCO2,[3]; at -40% blood pressure,36.0 ± 0.7 mmHg
same,Arterial Oxygen Tension PaO2,[3]; at -40% blood pressure,249.3 ± 6.0 mmHg
same,Arterial pH (pH-a),[3]; at -40% blood pressure,7.334 ± 0.012
same,Body Temperature BT,[3]; at -40% blood pressure,37.3 ± 0.6 °C
same,Cardiac Output C.O.,[3]; at -40% blood pressure,1.20 ± 0.14 L/min
same,Central Venous Pressure CVP,[3]; at -40% blood pressure,3.12 ± 0.47 mmHg
same,Dose,[3]; at -40% blood pressure,3.61 ± 1.01 µg/kg/min
same,Heart Rate H.R.,[3]; at -40% blood pressure,155.5 ± 9.1 beats/min
same,Hematocrit Value Hct,[3]; at -40% blood pressure,39.8 ± 3.3%
same,Mean Blood Pressure B.P. (mean),[3]; at -40% blood pressure,79.8 ± 4.6
same,Mean Blood Pressure B.P. (Δ%),[3]; at -40% blood pressure,-40.7 ± 0.5%
same,Mixed Venous Carbonate Tension PvCO2,[3]; at -40% blood pressure,39.7 ± 1.0 mmHg
same,Mixed Venous Oxygen Tension PvO2,[3]; at -40% blood pressure,50.0 ± 1.9 mmHg
same,Mixed Venous pH (pH-v),[3]; at -40% blood pressure,7.286 ± 0.012
same,Pulmonary Artery Pressure PAM,[3]; at -40% blood pressure,13.3 ± 3.0 mmHg
same,Pulmonary Capillary Wedge Pressure PCWP,[3]; at -40% blood pressure,6.8 ± 2.1 mmHg
same,Arterial Carbonate Tension PaCO2,[3]; at -50% blood pressure,36.9 ± 1.0 mmHg
same,Arterial Oxygen Tension PaO2,[3]; at -50% blood pressure,251.7 ± 9.3 mmHg
same,Arterial pH (pH-a),[3]; at -50% blood pressure,7.303 ± 0.017
same,Body Temperature BT,[3]; at -50% blood pressure,37.2 ± 0.6 °C
same,Cardiac Output C.O.,[3]; at -50% blood pressure,1.17 ± 0.11 L/min
same,Central Venous Pressure CVP,[3]; at -50% blood pressure,3.48 ± 0.56 mmHg
same,Dose,[3]; at -50% blood pressure,4.77 ± 1.14 µg/kg/min
same,Heart Rate H.R.,[3]; at -50% blood pressure,143.3 ± 7.3 beats/min
same,Hematocrit Value Hct,[3]; at -50% blood pressure,40.0 ± 3.5%
same,Mean Blood Pressure B.P. (mean),[3]; at -50% blood pressure,67.5 ± 3.4
same,Mean Blood Pressure B.P. (Δ%),[3]; at -50% blood pressure,-49.8 ± 0.2%
same,Mixed Venous Carbonate Tension PvCO2,[3]; at -50% blood pressure,41.6 ± 0.6 mmHg
same,Mixed Venous Oxygen Tension PvO2,[3]; at -50% blood pressure,53.3 ± 4.5 mmHg
same,Mixed Venous pH (pH-v),[3]; at -50% blood pressure,7.278 ± 0.015
same,Pulmonary Artery Pressure PAM,[3]; at -50% blood pressure,12.8 ± 2.7 mmHg
same,Pulmonary Capillary Wedge Pressure PCWP,[3]; at -50% blood pressure,6.7 ± 2.0 mmHg
same,Arterial Carbonate Tension PaCO2,[3]; at -60% blood pressure,36.8 ± 1.0 mmHg
same,Arterial Oxygen Tension PaO2,[3]; at -60% blood pressure,253.2 ± 11.92 mmHg
same,Arterial pH (pH-a),[3]; at -60% blood pressure,7.308 ± 0.022
same,Body Temperature BT,[3]; at -60% blood pressure,36.9 ± 0.7 °C
same,Cardiac Output C.O.,[3]; at -60% blood pressure,1.04 ± 0.10 L/min
same,Central Venous Pressure CVP,[3]; at -60% blood pressure,3.70 ± 0.76 mmHg
same,Dose,[3]; at -60% blood pressure,5.91 ± 1.49 µg/kg/min
same,Heart Rate H.R.,[3]; at -60% blood pressure,134.6 ± 7.2 beats/min
same,Hematocrit Value Hct,[3]; at -60% blood pressure,38.4 ± 4.5%
same,Mean Blood Pressure B.P. (mean),[3]; at -60% blood pressure,56.0 ± 4.3
same,Mean Blood Pressure B.P. (Δ%),[3]; at -60% blood pressure,-58.1 ± 1.3%
same,Mixed Venous Carbonate Tension PvCO2,[3]; at -60% blood pressure,40.6 ± 1.2 mmHg
same,Mixed Venous Oxygen Tension PvO2,[3]; at -60% blood pressure,49.9 ± 3.1 mmHg
same,Mixed Venous pH (pH-v),[3]; at -60% blood pressure,7.275 ± 0.016
same,Pulmonary Artery Pressure PAM,[3]; at -60% blood pressure,12.4 ± 3.4 mmHg
same,Pulmonary Capillary Wedge Pressure PCWP,[3]; at -60% blood pressure,6.2 ± 2.2 mmHg
same,effect on arterial pH / venous pH,[3]; result in words,significantly decrease arterial pH or have a tendency to decrease arterial pH
same,effect on carbonate tension,[3]; result in words,almost no effects on the oxygen tension and carbonate tension
same,effect on heart rate,[3]; result in words,tendency to increase the heart rate when a 20% or less fall in blood pressure is attained
same,effect on oxygen tension,[3]; result in words,almost no effects on the oxygen tension and carbonate tension
same,Blood Pressure (Δ%),[4]; infusion 0.03 μg/kg/min,0%
same,Heart Rate (Δ%),[4]; infusion 0.03 μg/kg/min,0%
same,Blood Pressure (Δ%),[4]; infusion 0.1 μg/kg/min,0%
same,Heart Rate (Δ%),[4]; infusion 0.1 μg/kg/min,0%
same,Blood Pressure (Δ%),[4]; infusion 0.3 μg/kg/min,-1.9 ± 1.9%
same,Heart Rate (Δ%),[4]; infusion 0.3 μg/kg/min,-0.3 ± 0.3%
same,Blood Pressure (Δ%),[4]; infusion 1 μg/kg/min,-9.8 ± 3.1%
same,Heart Rate (Δ%),[4]; infusion 1 μg/kg/min,-1.2 ± 1.4%
same,Blood Pressure (Δ%),[4]; infusion 3 μg/kg/min,-26.2 ± 4.0%
same,Heart Rate (Δ%),[4]; infusion 3 μg/kg/min,-8.0 ± 3.4%
same,Blood Pressure (Δ%),[4]; infusion 10 μg/kg/min,-48.0 ± 2.7%
same,Heart Rate (Δ%),[4]; infusion 10 μg/kg/min,-13.6 ± 2.9%
same,recovered blood pressure (before administration = 100%),[5]; 15 minutes,about 85%
same,fall in blood pressure attained before recovery,[5]; stepwise,about 55%
same,rapidness of the recovery of blood pressure,[5]; order in words,Ap4A>PG E1 >nitroglycerin
"O=C1N(Cc2ccccc2)C2C[S+]3CCCC3C2N1Cc1ccccc1 (stereo not drawn) [trimethaphan, Trimethaphan]",shortcomings / adverse effects,[2],"renal insufficiency because of tubular impairment near the kidney, tachyphylaxis, tachycardia, and mydriasis after its use"
same,shortcomings / adverse effects,[2]; listed as Trimethaphan,"cardiac contractility, cardiac output, and coronary blood flow are decreased by the ganglionic blockade thereof and histamine liberation effect is increased"
collagen [reference compound],concentration inducing maximal platelet aggregation,[1],5 µg/kg
